Experiments:
[1] = system: various bacteria; experiment: MICs of 44 and 45, representative strains and strains expressing aminoglycoside modifying enzymes; format: cell-based; details: Tables 7 and 8, frequently
Description: To compare microbiological activity of the test compounds, minimum inhibitory concentrations (MIC.s) were determined. Antibiotic MICs were obtained using the broth microdilution method according to Clinical and Laboratory Standards Institute (CLSI) approved guidelines (Methods for dilution antimicrobial susceptibility tests for bacteria that grow aerobically; approved standard—7th ed. CLSI document M7-A7. Clinical and Laboratory Standards Institute, Wayne, Pa., incorporated herein by reference in its entirety). Antibiotics were dissolved as specified by CLSI (Performance standards for antimicrobial susceptibility testing; Seventeenth informational supplement. CLSI document M100-S17. Clinical and Laboratory Standards Institute, Wayne, Pa., incorporated herein by reference in its entirety), and were serially diluted 2-fold in cation adjusted Mueller Hinton Broth (CaMHB) at 2× concentration. Bacterial inoculums were prepared in CaMHB by suspension of a colony from an agar plate that was prepared the previous day to obtain a final concentration of 5×10^5CFU/ml. The plates were incubated for 18 hours at 35° C. […] MIC.s were determined by reading the turbidity of plate wells using a SpectraMax Plus384 plate reader (Molecular Devices, Sunnyvale, Calif., USA) at 600 nm and were confirmed by visual inspection.

[2] = system: rats; experiment: Nephrotoxicity of test compounds in rats; details: once daily subcutaneous

## CN[C@@H]1C(O)[C@@H](OC2C(O)C(O[C@H]3O[C@H](CNC[C@@H](O)CO)CCC3N)[C@@H](N)C[C@H]2NC(=O)[C@@H](O)CN)OCC1(C)O (some centres unmarked) [Compound 44]
[1]
  fold more active than 45 (MIC): 2- to 4 fold
[2]; 30 mg/kg/day
  Histopathology Results After 7 days of Dosing: No change
  Histopathology Results After 14 days of Dosing: No change
[2]; 60 mg/kg/day
  Histopathology Results After 7 days of Dosing: No change
  Histopathology Results After 14 days of Dosing: Minimal Hyaline-droplet

— patent US8906868B2, “Aminoglycoside derivatives” (Rempex Pharmaceuticals, Inc., priority 2010, dated 2014)
